Source: patent publication US20090246292A1, “ANTIMICROBIAL FORMULATIONS COMPRISING A QUINONE AND A COPPER SALT” (priority 2006, published 2009)
Like-named read-outs stand apart in the source and are kept apart here.

Columns and labels:
S. aureus ATCC 29213 [1] = assay: Synergy disc diffusion assay (SDDA), also supplemented;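 further: disc diffusion on Mueller-Hinton agar at pH 7.2, aerobic incubation at 37 °C lasting 19-20 h, two compounds assessed jointly for combined antimicrobial effect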
S. aureus ATCC 29213 [2] = assay: Disc diffusion assay (DDA), also supplemented
Method: The staphylococci were cultured and maintained on Mueller-Hinton Medium (agar and broth) at pH 7.2; cultures were incubated aerobically at 37° C. for 19-20 hours.
(d) Disc Diffusion Assay (DDA)
A sterile paper disc was impregnated with a sample of the test compound in a suitable solvent and 30 minutes allowed for the solvents to evaporate (where possible). The disc was then placed on an agar plate onto which the test micro-organism had been inoculated. The plate was then incubated under the conditions described above, following which it was examined visually for signs of bacterial growth. […] The diameter of this zone of “inhibition” was measured using a ProtoCOL™ automated zone sizer (Synbiosis, Cambridge, UK).
(f) Supplemented Disc Diffusion Assays
For assays using S. aureus ATCC 29213 the supplements used were sodium chloride (100 mM), lipid (Tween™ 80 at 1% v/v) and horse serum (5% v/v).

P. acnes NCTC 737 [3] = assay: Minimum bactericidal concentration (MBC) assay; type: cell-based, Propionibacterium acnes
Method: (§1) (b) Minimum Bactericidal Concentration (MBC) Assay
(§2) Following incubation they were examined visually for bacterial growth.

P. acnes NCTC 737 [4] = assay: Disc diffusion assay (DDA), also supplemented;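 further: paper disc carrying compound placed on inoculated Wilkins-Chalgren Anaerobe agar pH 6.0, with lipid or NaCl supplement where listed, anaerobic 37 °C for 72 h, inhibition zone diameter read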
S. aureus ATCC 29213 [5] = assay: Minimum inhibitory concentration (MIC) assay; type: cell-based, Staphylococcus aureus
Excerpt: (§3) (a) Minimum Inhibitory Concentration (MIC) Assay
(§4) The culture media were as described above.
(§5) The assays included both negative (culture medium with no micro-organisms) and positive (culture medium plus diluting solvent plus micro-organism) controls.

P. acnes NCTC 737 [6] = assay: Minimum inhibitory concentration (MIC) assay; type: cell-based, Propionibacterium acnes
Excerpt: as §3, §4, §5

S. aureus ATCC 29213 [7] = assay: Minimum bactericidal concentration (MBC) assay; type: cell-based, Staphylococcus aureus
Method: as §1, §2

P. acnes NCTC 737 [8] = assay: Synergy disc diffusion assay (SDDA), also supplemented
Method: The propionibacteria were cultured and maintained on Wilkins-Chalgren Anaerobe Medium (agar and broth) at pH 6.0; all cultures were incubated anaerobically at 37° C. for 72 hours.
(e) Synergy Disc Diffusion Assay (SDDA)
This is a variation on the DDA method, in which two compounds are tested together for their combined antimicrobial activity.
Two test compounds A and B were placed on a single paper disc and the above described DDA procedure repeated.
(f) Supplemented Disc Diffusion Assays
For assays using Propionibacterium spp. strains the supplements used in the examples below were lipid (either Tween™ 80 or triolein, both at 1% v/v) and sodium chloride (100 mM).

[9] = copper salt + TBHQ on one disc, 200 μg of each (silicate 62 μg), salt and serum supplements
[10] = copper salt + TBHQ on one disc, 200 μg of each (silicate 62 μg), unsupplemented
[11] = copper salt + TBHQ vs larger zone of either compound alone, unsupplemented
[12] = copper salt + TBHQ, salt and serum supplements
[13] = copper salt + TBHQ, unsupplemented
[14] = copper salt alone, 200 μg per disc (silicate 62 μg), Tween 80 at 1% v/v
[15] = copper salt alone, 200 μg per disc (silicate 62 μg), salt and horse serum (5% v/v)
[16] = copper salt alone, 200 μg per disc (silicate 62 μg), sodium chloride (100 mM)
[17] = copper salt alone, P. acnes NCTC 737
[18] = copper salt alone, 200 μg per disc (silicate 62 μg), 1% (v/v) Tween 80
[19] = copper salt alone, 200 μg per disc (silicate 62 μg), salt and 1% (v/v) Tween 80
[20] = copper salt alone, S. aureus ATCC 29213
[21] = copper salt + TBHQ on one disc, 200 μg of each (silicate 62 μg), salt and lipid (1% (v/v) Tween 80)
[22] = copper salt + TBHQ, salt and lipid (1% (v/v) Tween 80)

O.O=C([O-])C(O)C(O)C(=O)[O-].[Cu+2] (stereo not shown) [Copper (II) tartrate hydrate]
SDDA area increase (S. aureus ATCC 29213 [1]): −88.71% | SDDA increase (S. aureus ATCC 29213 [1]): −26.84 mm | SDDA with TBHQ (S. aureus ATCC 29213 [1]): 13.58 mm | SS SDDA area increase (S. aureus ATCC 29213 [1]): −94.19% | SS SDDA increase (S. aureus ATCC 29213 [1]): −33.15 mm | SS SDDA with TBHQ (S. aureus ATCC 29213 [1]): 10.53 mm | DDA (S. aureus ATCC 29213 [2]): 0 mm | DDA + lipid (S. aureus ATCC 29213 [2]): 0 mm | DDA + salt (S. aureus ATCC 29213 [2]): 0 mm | DDA + salt & serum (S. aureus ATCC 29213 [2]): 0 mm | MBC (P. acnes NCTC 737 [3]): 62.5 µg/mL | DDA (P. acnes NCTC 737 [4]): 49.64 mm | DDA + lipid (P. acnes NCTC 737 [4]): 38.35 mm | DDA + salt (P. acnes NCTC 737 [4]): 48.25 mm | DDA + salt & lipid (P. acnes NCTC 737 [4]): 47.56 mm | MIC (S. aureus ATCC 29213 [5]): >250 µg/mL | MIC (P. acnes NCTC 737 [6]): 15.6 µg/mL | MIC/MBC ratio (P. acnes NCTC 737 [6]): 0.25 | MBC (S. aureus ATCC 29213 [7]): >250 µg/mL | SDDA area increase (P. acnes NCTC 737 [8]): 20.27% | SDDA increase (P. acnes NCTC 737 [8]): 4.8 mm | SDDA with TBHQ (P. acnes NCTC 737 [8]): 54.44 mm | SL SDDA area increase (P. acnes NCTC 737 [8]): 24.11% | SL SDDA increase (P. acnes NCTC 737 [8]): 5.42 mm | SL SDDA with TBHQ (P. acnes NCTC 737 [8]): 52.98 mm

Copper (I) oxide
SS SDDA with TBHQ (S. aureus ATCC 29213 [1]; [9]): 45.26 mm | SDDA with TBHQ (S. aureus ATCC 29213 [1]; [10]): 57.05 mm | SDDA increase (S. aureus ATCC 29213 [1]; [11]): 16.63 mm | SS SDDA area increase (S. aureus ATCC 29213 [1]; [12]): 7.37% | SS SDDA increase (S. aureus ATCC 29213 [1]; [12]): 1.58 mm | SDDA area increase (S. aureus ATCC 29213 [1]; [13]): 99.21% | DDA + lipid (S. aureus ATCC 29213 [2]; [14]): 0 mm | DDA + salt & serum (S. aureus ATCC 29213 [2]; [15]): 0 mm | DDA + salt (S. aureus ATCC 29213 [2]; [16]): 0 mm | MBC (P. acnes NCTC 737 [3]; [17]): 31.25 µg/mL | DDA + lipid (P. acnes NCTC 737 [4]; [18]): 37.42 mm | DDA + salt & lipid (P. acnes NCTC 737 [4]; [19]): 43.49 mm | DDA + salt (P. acnes NCTC 737 [4]; [16]): 44.85 mm | MIC (S. aureus ATCC 29213 [5]; [20]): >250 µg/mL | MIC (P. acnes NCTC 737 [6]; [17]): 1.95 µg/mL | MIC/MBC ratio (P. acnes NCTC 737 [6]; [17]): 0.06 | MBC (S. aureus ATCC 29213 [7]; [20]): >250 µg/mL | SL SDDA with TBHQ (P. acnes NCTC 737 [8]; [21]): 51.73 mm | SDDA with TBHQ (P. acnes NCTC 737 [8]; [10]): 50.06 mm | SDDA increase (P. acnes NCTC 737 [8]; [11]): 1.25 mm | SL SDDA area increase (P. acnes NCTC 737 [8]; [22]): 41.48% | SL SDDA increase (P. acnes NCTC 737 [8]; [22]): 8.24 mm | SDDA area increase (P. acnes NCTC 737 [8]; [13]): 5.18%

Copper (II) salicylate
SDDA area increase (S. aureus ATCC 29213 [1]): 61.52% | SDDA increase (S. aureus ATCC 29213 [1]): 10.95 mm | SDDA with TBHQ (S. aureus ATCC 29213 [1]): 51.37 mm | SS SDDA area increase (S. aureus ATCC 29213 [1]): 9.37% | SS SDDA increase (S. aureus ATCC 29213 [1]): 2.00 mm | SS SDDA with TBHQ (S. aureus ATCC 29213 [1]): 45.68 mm | DDA (S. aureus ATCC 29213 [2]): 0 mm | DDA + lipid (S. aureus ATCC 29213 [2]): 0 mm | DDA + salt (S. aureus ATCC 29213 [2]): 0 mm | DDA + salt & serum (S. aureus ATCC 29213 [2]): 0 mm | MBC (P. acnes NCTC 737 [3]): 31.25 µg/mL | DDA (P. acnes NCTC 737 [4]): 47.77 mm | DDA + lipid (P. acnes NCTC 737 [4]): 41.75 mm | DDA + salt (P. acnes NCTC 737 [4]): 46.08 mm | DDA + salt & lipid (P. acnes NCTC 737 [4]): 50.69 mm | MIC (S. aureus ATCC 29213 [5]): 250 µg/mL | MIC/MBC ratio (S. aureus ATCC 29213 [5]): <1 | MIC (P. acnes NCTC 737 [6]): 7.8 µg/mL | MIC/MBC ratio (P. acnes NCTC 737 [6]): 0.25 | MBC (S. aureus ATCC 29213 [7]): >250 µg/mL | SDDA area increase (P. acnes NCTC 737 [8]): 150.52% | SDDA increase (P. acnes NCTC 737 [8]): 27.84 mm | SDDA with TBHQ (P. acnes NCTC 737 [8]): 75.61 mm | SL SDDA area increase (P. acnes NCTC 737 [8]): 84.98% | SL SDDA increase (P. acnes NCTC 737 [8]): 18.25 mm | SL SDDA with TBHQ (P. acnes NCTC 737 [8]): 68.94 mm

Copper (II) silicate
SS SDDA with TBHQ (S. aureus ATCC 29213 [1]; [9]): 57.26 mm | SDDA with TBHQ (S. aureus ATCC 29213 [1]; [10]): 71.79 mm | SDDA increase (S. aureus ATCC 29213 [1]; [11]): 31.37 mm | SS SDDA area increase (S. aureus ATCC 29213 [1]; [12]): 71.85% | SS SDDA increase (S. aureus ATCC 29213 [1]; [12]): 13.58 mm | SDDA area increase (S. aureus ATCC 29213 [1]; [13]): 215.45% | DDA + salt & serum (S. aureus ATCC 29213 [2]; Example 9, single compound, salt and serum): 0.00 (±0.00) mm | DDA + lipid (S. aureus ATCC 29213 [2]; [14]): 0 mm | DDA + salt & serum (S. aureus ATCC 29213 [2]; [15]): 0 mm | DDA + salt (S. aureus ATCC 29213 [2]; [16]): 0 mm | MBC (P. acnes NCTC 737 [3]; [17]): 38.75 µg/mL | DDA + salt & lipid (P. acnes NCTC 737 [4]; Example 8, single compound, salt and 1% (v/v) triolein): 42.56 (±2.18) mm | DDA + lipid (P. acnes NCTC 737 [4]; [18]): 33.40 mm | DDA + salt & lipid (P. acnes NCTC 737 [4]; [19]): 48.81 mm | DDA + salt (P. acnes NCTC 737 [4]; [16]): 41.44 mm | MIC (S. aureus ATCC 29213 [5]; [20]): >77.5 µg/mL | MIC (P. acnes NCTC 737 [6]; [17]): 4.84 µg/mL | MIC/MBC ratio (P. acnes NCTC 737 [6]; [17]): 0.125 | MBC (S. aureus ATCC 29213 [7]; [20]): >77.5 µg/mL | SL SDDA with TBHQ (P. acnes NCTC 737 [8]; [21]): 54.96 mm | SDDA with TBHQ (P. acnes NCTC 737 [8]; [10]): 54.44 mm | SDDA increase (P. acnes NCTC 737 [8]; [11]): 8.76 mm | SL SDDA area increase (P. acnes NCTC 737 [8]; [22]): 26.80% | SL SDDA increase (P. acnes NCTC 737 [8]; [22]): 6.15 mm | SDDA area increase (P. acnes NCTC 737 [8]; [13]): 42.03%

Copper (II)-D-gluconate
SS SDDA with TBHQ (S. aureus ATCC 29213 [1]; [9]): 53.37 mm | SDDA with TBHQ (S. aureus ATCC 29213 [1]; [10]): 68.32 mm | SDDA increase (S. aureus ATCC 29213 [1]; [11]): 27.90 mm | SS SDDA area increase (S. aureus ATCC 29213 [1]; [12]): 49.29% | SS SDDA increase (S. aureus ATCC 29213 [1]; [12]): 9.69 mm | SDDA area increase (S. aureus ATCC 29213 [1]; [13]): 185.69% | DDA (S. aureus ATCC 29213 [2]): 0 mm | DDA + lipid (S. aureus ATCC 29213 [2]; [14]): 0 mm | DDA + salt & serum (S. aureus ATCC 29213 [2]; [15]): 0 mm | DDA + salt (S. aureus ATCC 29213 [2]; [16]): 0 mm | MBC (P. acnes NCTC 737 [3]; [17]): 125 µg/mL | DDA (P. acnes NCTC 737 [4]): 45.37 mm | DDA + lipid (P. acnes NCTC 737 [4]; [18]): 27.36 mm | DDA + salt & lipid (P. acnes NCTC 737 [4]; [19]): 47.04 mm | DDA + salt (P. acnes NCTC 737 [4]; [16]): 37.93 mm | MIC (S. aureus ATCC 29213 [5]; [20]): >250 µg/mL | MIC (P. acnes NCTC 737 [6]; [17]): 62.5 µg/mL | MIC/MBC ratio (P. acnes NCTC 737 [6]; [17]): 0.5 | MBC (S. aureus ATCC 29213 [7]; [20]): >250 µg/mL | SL SDDA with TBHQ (P. acnes NCTC 737 [8]; [21]): 53.19 mm | SDDA with TBHQ (P. acnes NCTC 737 [8]; [10]): 53.5 mm | SDDA increase (P. acnes NCTC 737 [8]; [11]): 8.13 mm | SL SDDA area increase (P. acnes NCTC 737 [8]; [22]): 27.88% | SL SDDA increase (P. acnes NCTC 737 [8]; [22]): 6.15 mm | SDDA area increase (P. acnes NCTC 737 [8]; [13]): 39.05%
